Data as given in US6358521B1, “Fermented milk nutraceuticals” (priority 1993, dated 2002).

Tested on: purulent wound infected with Staphylococcus aureus
Test: Purulent skin-facial wound model infected with Staphylococcus aureus, topical treatment
Assay type: in vivo, Chinchilla rabbits
Experimental: The effect of topical administration of a fermented milk product prepared as described above was studied using 24 Chinchilla rabbits. Standard skin-facial wounds of about 2×2.5 cm (500 sq. mm) in size were inflicted in the back area of all the rabbits; a skin graft was dissected with subcutaneous fat and fascia up to a muscular layer, wound edges containing subcutaneous muscle were crushed with Kocher's forceps. Following hemeostasis, rabbits were infected by introducing 1 ml microbial suspension containing 1.5×10^9 Staphylococcus aureus into the wound.
All animals were divided into three groups each containing eight rabbits. In group I (test), the animals were treated with the fermented milk. For comparison, rabbits of Group II were treated with Rivanol (Chinosolfabrik, Germany). Group III consisted of control, untreated animals. Treatment was initiated on the third day postinfection. The fermented milk preparations were applied locally using liberally wetted, loosely placed napkins onto the wound followed by application of an aseptic dressing. Animals of the control group were maintained under identical conditions, and were subjected to daily wound sanitation and application of aseptic dressings.
The clinical course of wound healing was controlled based on a number of criteria—nature and amount of the discharge, terms for arresting a perifocal inflammatory reaction, necrolysis terms, emergence of granulations, epithelization, terms of a wound healing. At the same time, the surface area of the wound was measured; cytological, morphological studies of the wound edge and bottom were carried out; and bacteriological studies of wound discharge (prior and during the treatment) were performed. To determine the presence of microbes in sections, the preparations were Gram-Weigart stained. Bacteriological studies were carried out with regard to a rate and duration of Staphylococcus dissemination from a destruction focus. The following quantitative characteristics of dissemination were used: up to 25 colonies on a Petri dish=limited growth; up to 70 colonies=poor growth; up to 200 colonies=abundant growth; and more than 200 colonies=complete growth.
Material from a purulent wound was removed with a calcined and quenched standard loop, 3 mm in diameter, emulsified in 1 ml saline and then plated by 0.05 ml onto Petri dishes of plain agar. The plated material was placed in an incubator at 37° C. for 18-20 hours followed by Staphylococcus aureus colony count.

[1] = local application, treatment from third day postinfection

With CCOc1ccc2nc3cc(N)ccc3c(N)c2c1 [Rivanol] as the molecule, how does the “Edge epithelization advent” value [1] read?
Its value is 15.1 days.

And the “Full wound filling with granules” value [1]?
Its value is 18.9 days.

What about the “Full wound healing” value [1] of the same molecule?
The value was 24.7 days.

And the “First granulation advent” value (local application, treatment from third day postinfection, 8 rabbits per group)?
Its value is 7.0 days.

What about the “Full wound healing, days (first column of that name)” value (local application, treatment from third day postinfection, column after first granulation advent) of the same molecule?
Its value is 13.5 days.

And the “Nature of the cicatrix” value (study of cicatrices after healing)?
The value was “a more coarse cicatricial tissue prevailed”.
